Results taken from patent publication US20030059878A1, “Novel purinoceptor and gene thereof” (TANABE SEIYAKU CO., LTD, priority 2001, published 2003).

Biological target: T1, fusion protein of TG0022 protein and Giαl (^351Cys→Ile) (Homo sapiens, UniProt P63096+Q9BPV8, C351I)
T1 construct: made in house; host or cells: Sf9 (Spodoptera frugiperda) insect cells, baculovirus vector pVL1392; membrane fraction
Assay: [35S]GTPγS binding to membrane fraction containing fusion protein of TG0022 protein and Giαl (351Cys→Ile)
Type: biochemical
Conditions: Sf9 membrane fraction, TG0022-Giαl (351Cys→Ile) fusion; relative to control without test compound (FIG. 4)
Description: It was assumed that TG0022 protein would be a G protein-coupled receptor as is disclosed in Example 1. Then, by using a membrane fraction containing a fusion protein of TG0022 protein and G protein, the identification of ligand was done by a method of detecting a ligand-dependent binding with GTPγS (guanosine 5′-O-(3-thiotriphosphate)) (Wenzel-Seifert et al., Mol. Pharmacol., Vol. 58, pp. 954-966, 2000; Bahia et al., Biochemistry, Vol. 37, pp. 11555-11562, 1998).
The Sf9 cells were inoculated in a 10 cm plate which was coated with collagen so as to be about 70% confluency, and thereto were added Virus Solution III obtained above (100 μl) and a medium (12 ml), and the mixture was cultivated at 27° C. for 4 days. […]
The membrane fraction obtained in the above (2) (450 μl) was suspended into a reaction buffer (7.54 ml), and thereto was added GDP (10 mM, 10 μl). […] The filter was washed with a cooled reaction buffer (200 μl) three times, and the amount of [^35S]GTPγS (amount bound to the membrane fraction) on the filter was measured by a liquid scintillator. […] GTPγS was calculated by reducting an amount of non-specifically bound [^35S] GTPγS (which was measured in the presence of 10 μM GTPγS) from the amount of [^35S]GTPγS obtained above.

T1 sequence (Q9BPV8+P63096 fused P63096:C351I): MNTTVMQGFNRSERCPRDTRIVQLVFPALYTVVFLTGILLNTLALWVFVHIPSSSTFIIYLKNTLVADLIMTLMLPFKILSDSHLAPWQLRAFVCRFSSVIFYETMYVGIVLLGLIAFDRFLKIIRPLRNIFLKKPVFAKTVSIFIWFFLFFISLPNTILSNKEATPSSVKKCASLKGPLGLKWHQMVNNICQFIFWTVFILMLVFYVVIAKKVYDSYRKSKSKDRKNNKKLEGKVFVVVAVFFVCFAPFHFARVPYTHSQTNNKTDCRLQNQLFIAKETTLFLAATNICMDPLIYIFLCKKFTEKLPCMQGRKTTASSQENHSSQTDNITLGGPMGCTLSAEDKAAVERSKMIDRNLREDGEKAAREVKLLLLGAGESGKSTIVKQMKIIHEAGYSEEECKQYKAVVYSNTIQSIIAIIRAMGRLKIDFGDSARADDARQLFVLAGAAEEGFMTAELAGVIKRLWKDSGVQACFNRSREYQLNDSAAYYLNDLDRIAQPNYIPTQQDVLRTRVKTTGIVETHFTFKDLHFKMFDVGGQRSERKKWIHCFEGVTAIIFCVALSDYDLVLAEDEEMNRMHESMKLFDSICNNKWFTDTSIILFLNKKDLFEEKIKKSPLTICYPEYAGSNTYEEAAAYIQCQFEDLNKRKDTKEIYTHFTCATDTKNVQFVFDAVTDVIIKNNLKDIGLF

Row | specific binding amount of [^35S] GTPγS | SMILES
1 | increased dependent on the concentration | Nc1ncnc2c1ncn2[C@@H]1O[C@H](COP(=O)(O)OP(=O)(O)OP(=O)(O)O)[C@@H](O)[C@H]1O [ATP]
2 | increased dependent on the concentration | Nc1ncnc2c1ncn2[C@@H]1O[C@H](COP(=O)(O)OP(=O)(O)O)[C@@H](O)[C@H]1O [ADP]
